These results are taken from PMC6071143, “(−)-Homosalinosporamide A and Its Mode of Proteasome Inhibition: An X-ray Crystallographic Study” (Marine Drugs, 2018).

Where two headings read alike, the source gives them in different places.

As usually defined, the IC50 is the concentration needed to halve the response being measured.

Test [1] has as its system yeast 20S proteasome, chymotrypsin-like (ChT-L) activity. The note with it: luminogenic enzyme assay; cited from earlier work.
Test [2] relates to yeast 20S proteasome, trypsin-like (T-L) activity. The note with it: luminogenic enzyme assay; cited from earlier work.
Test [3] addresses T1, yeast 20S proteasome (Saccharomyces cerevisiae, UniProt P25043+P30656+P38624).
T1 construct: Crystals of the 20S proteasome from S. cerevisiae were grown in hanging drops; endogenous in cells; host or cells: S. cerevisiae (complex purified from yeast by a cited earlier protocol)
The note with it: cited from earlier work.

Test [4] addresses yeast 20S proteasome, caspase-like (C-L) activity. The note with it: luminogenic enzyme assay; cited from earlier work.
For another test, the system named is human proteasome. Also on record: method as in PMID 16286248. The note with it: cited from earlier work.
The test system of test [5] is yeast 20S proteasome, chymotrypsin-like (ChT-L) activity. The test is described as follows: luminogenic enzyme assay, chymotrypsin-like activity. In kind it is biochemical. The method, then: The proteasome inhibitory activity of the unnatural analog, homoSalA, was measured in a luminogenic enzyme assay in comparison to SalA enabling assessment of all three active sites of yCP.

Test [6] has as its target T1, yeast 20S proteasome. The test is described as follows: X-ray crystallography of yeast 20S proteasome:ligand complex, mode of action. In kind it is binding. The note with it: yCP:homoSalA crystal structure, crystals soaked at 5 mM; no tetrahydropyran ring formation. On the procedure: Therefore, we elucidated the yCP:homoSalA complex at molecular resolution to investigate its mode of action. Active yCP crystals were soaked with final compound concentrations of 5 mM for 24 h. Subsequently, diffraction data were recorded to 2.9 Å resolution (Table 2) and data processing, as well as structural refinement, were performed according to previous protocols. The crystallographic data were refined to a final Rfree value of 23.3% with root mean square deviation bond and angle values less than 0.007 Å and 1.1°, respectively (PDB ID 6GOP, Table 2). […] While the active site nucleophile Thr1O^γ opens the β-lactone ring, the positively charged Thr1NH3^+-terminus acts as a Brønsted acid generating a C4-hydroxyl group from the hydrolyzed β-lactone. […]
While the electron density map offered no evidence for fluoride elimination, the complex structure determined after 24 h crystal soaking time depicts complete displacement of the leaving group. […]
Crystals of the 20S proteasome from S. cerevisiae were grown in hanging drops at 20 °C as previously described and incubated for […] with homoSalA at 5 mM. […] Crystals were soaked in a cryoprotecting buffer (30% MPD, 20 mM of magnesium acetate, 100 mM MES (pH 6.9)) and frozen in a stream of liquid nitrogen gas at 100 K. X-ray intensities were evaluated using the XDS program package. […]

The test system of test [7] is chymotrypsin-like activity of the proteasome. Also on record: method as in PMID 7732382. The note with it: cited from earlier work.

For `C[C@@]12OC(=O)[C@]1([C@@H](O)[C@@H]1C=CCCC1)NC(=O)[C@@H]2CCCl` [(–)-SalA (1), salinosporamide A], the “ChT-L Activity 20S Proteasome (IC50, nM)” value in test [1] is “sub-nanomolar range”. Also, the IC50 in test [1] was 0.8 ± 0.08 nM; in test [2], 39 ± 7 nM; in test [4], 111 ± 22 nM; in the test with human proteasome it was 1.3 nM. Besides, the “mode of action (reversibility of proteasome inhibition)” value at yeast 20S proteasome [3] (chloro-ethyl moiety forms a tetrahydrofuran ring) is given as “irreversibly blocks the CP”.

For the compound `C[C@@]12OC(=O)[C@]1([C@@H](O)[C@@H]1C=CCCC1)NC(=O)[C@@H]2CCCCl` [(–)-homoSalA (3), (–)-homosalinosporamide A], the “ChT-L Activity 20S Proteasome (IC50, nM)” value in test [1] was “sub-nanomolar range”. Further, the IC50 was 0.7 ± 0.04 nM in test [1], 118 ± 28 nM in test [2] and 144 ± 12 nM in test [4]. Moreover, in test [5], the “potency towards caspase- and trypsin-like activities relative to chymotrypsin-like activity” value is “two orders of magnitude less potent”. At yeast 20S proteasome [6], the “mode of action (reversibility of proteasome inhibition)” value is “reversible binder”.

In the case of `CC[C@H]1C(=O)N[C@@]2([C@@H](O)[C@@H]3C=CCCC3)C(=O)O[C@@]12C` [SalB, salinosporamide B], the “mode of action (reversibility of proteasome inhibition)” value at yeast 20S proteasome [3] is reported as “slow reversible CP inhibitor”.

For `CC(C)[C@H](O)[C@@]12NC(=O)[C@H](C)[C@@H]1OC2=O` [omuralide (5), omuralide], the 50% inhibitory concentration (IC50) in test [7] is 49 nM.
